Measurements as given in ChEMBL document CHEMBL1201862, “PubChem BioAssay data set” (2004).
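Growth conditions: 96-well plates. Treatment: test compound, 48 hours, 5 concentrations. Analysis: linear interpolation between bracketing concentrations; unreached endpoints set to highest concentration. The concentration for 50% growth inhibition is given as GI50.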 Active and inactive are the calls of the source. Cut-off read from the data, not from the text of the source: active = GI50 up to about 1.1 µM and inactive = higher.

What was measured:
Experiment in all cases: NCI-60 cell line screen, 48 h
786-0 = test system: 786-0
A549 = test system: A549
ACHN = test system: ACHN
CCRF-CEM = test system: CCRF-CEM
COLO 205 = test system: COLO 205
DMS-114 = test system: DMS-114
DMS-273 = test system: DMS-273
EKVX = test system: EKVX
HCT-116 = test system: HCT-116
HCT-15 = test system: HCT-15
HL-60 = test system: HL-60
HOP-62 = test system: HOP-62
HT-29 = test system: HT-29
IGROV-1 = test system: IGROV-1
K562 = test system: K562
KM-20L2 = test system: KM-20L2
KM12 = test system: KM12
LOX IMVI = test system: LOX IMVI
LXFL 529 = test system: LXFL 529
M14 = test system: M14
M19-MEL = test system: M19-MEL
MOLT-4 = test system: MOLT-4
Malme-3M = test system: Malme-3M
NCI-H226 = test system: NCI-H226
NCI-H23 = test system: NCI-H23
NCI-H460 = test system: NCI-H460
NCI-H522 = test system: NCI-H522
OVCAR-3 = test system: OVCAR-3
OVCAR-4 = test system: OVCAR-4
OVCAR-5 = test system: OVCAR-5
OVCAR-8 = test system: OVCAR-8
RPMI-8226 = test system: RPMI-8226
RXF 393 = test system: RXF 393
SF-268 = test system: SF-268
SF-295 = test system: SF-295
SK-MEL-28 = test system: SK-MEL-28
SK-MEL-2 = test system: SK-MEL-2
SK-MEL-5 = test system: SK-MEL-5
SN12C = test system: SN12C
SNB-19 = test system: SNB-19
SNB-75 = test system: SNB-75
SNB-78 = test system: SNB-78
SR = test system: SR
SW-620 = test system: SW-620
TK-10 = test system: TK-10
U-251 = test system: U-251
UACC-62 = test system: UACC-62
UO-31 = test system: UO-31
XF498 = test system: XF498

In the case of `O=C1C[C@@H]2[C@@H](c3ccccc3)[C@@H]3C(=O)c4ccccc4NC(=O)[C@H]3[C@]2(O)c2ccccc2N1`, the GI50 (786-0) is reported as > 100 µM (inactive), the GI50 (A549) is reported as > 100 µM (inactive) and the GI50 (ACHN) is reported as > 100 µM (inactive). For the same molecule, the GI50 (CCRF-CEM) was > 100 µM (inactive), the GI50 (COLO 205) was > 100 µM (inactive) and the GI50 (DMS-114) was > 100 µM (inactive). For the same molecule, the GI50 (DMS-273) was > 100 µM (inactive), the GI50 (EKVX) was > 100 µM (inactive) and the GI50 (HCT-116) was > 100 µM (inactive). The GI50 (HCT-15) was over 100 µM, the GI50 (HL-60) was > 100 µM (inactive) and the GI50 (HOP-62) was > 100 µM (inactive). The GI50 (HT-29) was > 100 µM (inactive), the GI50 (IGROV-1) was > 100 µM (inactive) and the GI50 (K562) was > 100 µM (inactive). The GI50 (KM-20L2) was > 100 µM (inactive), the GI50 (KM12) was > 100 µM (inactive) and the GI50 (LOX IMVI) was > 100 µM (inactive). The GI50 (LXFL 529) was > 100 µM (inactive), the GI50 (M14) was > 100 µM (inactive) and the GI50 (M19-MEL) was > 100 µM (inactive). For the same molecule, the GI50 (MOLT-4) was > 100 µM (inactive), the GI50 (Malme-3M) was > 100 µM (inactive) and the GI50 (NCI-H226) was > 100 µM (inactive). For the same molecule, the GI50 (NCI-H23) was > 100 µM (inactive), the GI50 (NCI-H460) was > 100 µM (inactive) and the GI50 (NCI-H522) was > 100 µM (inactive). For the same molecule, the GI50 (OVCAR-3) was > 100 µM (inactive), the GI50 (OVCAR-4) was > 100 µM (inactive) and the GI50 (OVCAR-5) was > 100 µM (inactive). For the same molecule, the GI50 (OVCAR-8) was > 100 µM (inactive), the GI50 (RPMI-8226) was > 100 µM (inactive) and the GI50 (RXF 393) was > 100 µM (inactive). For the same molecule, the GI50 (SF-268) was > 100 µM (inactive), the GI50 (SF-295) was > 100 µM (inactive) and the GI50 (SK-MEL-28) was > 100 µM (inactive). The GI50 (SK-MEL-2) was > 100 µM (inactive), the GI50 (SK-MEL-5) was > 100 µM (inactive) and the GI50 (SN12C) was > 100 µM (inactive). The GI50 (SNB-19) was > 100 µM (inactive), the GI50 (SNB-75) was > 100 µM (inactive) and the GI50 (SNB-78) was > 100 µM (inactive). The GI50 (SR) was > 100 µM (inactive), the GI50 (SW-620) was > 100 µM (inactive) and the GI50 (TK-10) was > 100 µM (inactive). For the same molecule, the GI50 (U-251) was > 100 µM (inactive), the GI50 (UACC-62) was > 100 µM (inactive) and the GI50 (UO-31) was > 100 µM (inactive). For the same molecule, the GI50 (XF498) was > 100 µM (inactive).
